The test system of data set [1] is MDA-MB-231 xenograft tumors. The experiment in a line: MDA-MB-231 xenografts in nude mice. The format is in vivo. The procedure: NCR-nude female athymic mice were purchased from Taconic Farms, Inc. Mice were injected in the flank region with 1.5×10^6 MDA-MB-231 cells, while anesthetized with ketamine and xylazine. Prior to treatment, tumors were measured in three dimensions using a caliper and tumor volume was calculated by multiplying the three measured dimensions by 0.5 (V = 0.5*l*w*h). Once the tumors reached a minimum size of 100 mm^3, mice were injected intraperitoneally, twice a week, with 200 µL of the TE-64562 peptide (40 mg/kg; 7 µmol/kg), Tat peptide in PBS (20 mg/kg; 7 µmol/kg) or PBS. Endpoints were defined as the tumor size reaching 2000 mm^3 or 20 mm in any dimension, significant weight loss occurring or if the mouse appearing unhealthy according to body conditioning scoring standards. For histological analysis, organs were collected post-sacrifice and fixed in 4% formaldehyde in PBS, followed by paraffin embedding. Sections (6 µm thick) were mounted onto positively charged slides and H&E stained. Images were captured at 20× resolution on a Zeiss Axioplan 2 microscope.

For data set [2], the system named is MDA-MB-231 cells. The experiment in a line: Cellular entry of FAM-labeled peptides, live-cell fluorescent confocal microscopy. The format is cell-based, human. The note with it: N-terminally FAM-labeled peptide, 2.5 µM, serum starved cells in HBSS, live-cell confocal fluorescence. The procedure: MDA-MB-231 cells (1×10^5 cells per plate) were plated on 35 mm glass-bottom plates (MatTek Corporation, Ashland, MA), allowed to adhere overnight, then serum starved overnight and analyzed the following day in HBSS (Hank’s balanced salt solution). For real-time uptake of the FAM-labeled peptides, after recording background images, the FAM-labeled peptides were added and cells were imaged every two minutes over approximately 30 minutes. After 30 minutes, images were taken less frequently. Images from representative timepoints are shown. For overnight treatment, the cells were treated in serum-starved media, exchanged into HBSS the following day and imaged.

The subject of data set [3] is EGFR dimerization in MDA-MB-231 cells. The data set can be described thus: EGFR dimer detection, BS3 cross-linking and Western blot. In kind it is cell-based, human. As to conditions: 25 µM, 30 minutes; reduction in the loading control (Stat3). As for the experimental part:
Cells were plated in 10-cm dishes, grown to 80% confluence, serum starved overnight, treated and analyzed. For dose response assays, the peptides, EGFR-specific tyrosine kinase inhibitor (TKI) or control was added to each plate and incubated at 37°C for 30 minutes, followed by EGF (10 ng/mL) for an additional 10 minutes at 37°C. For timecourses, TE-64562 and/or EGF were added and the cells were incubated at 37°C for the indicated amounts of time. For EGFR dimer detection, cells were cross-linked after treatment using BS^3 crosslinker (bis[sulfosuccinimidyl] suberate, Thermo scientific, Inc) according to the manufacturer’s instructions. Immediately following treatment, cells were put on ice, washed twice with cold Tris-buffered saline (TBS, pH 7.4) and lysed with radio-immunoprecipitation buffer (50 mM Tris pH 7.5, 100 mM NaCl, 1% NP-40, 0.5% deoxycholate, 0.1% SDS, 1 mM EDTA and protease inhibitor cocktail). After protein concentration determination, cell lysates were analyzed by Western blot analysis with the indicated antibodies following standard procedures and visualized by chemiluminescence. Images were quantified using ImageJ Version 1.43 u.
On the technique in general: In western blotting, separated proteins are transferred to a membrane and probed.

Data set [4] relates to MDA-MB-231 cells. The experiment in a line: Cell viability assay (CellTiter-Glo). The format is cell-based, human. An excerpt: Assays are run in triplicate.
In general terms: ATP-based viability assays read luminescence as a measure of living cells.

Data set [5] has as its system NR6 cells (EGFR null clone of NIH/3T3 fibroblasts). The note with it: read-out: EC50 value; serum starved overnight, 24 h treatment; mean ± S.D. of two to three independent experiments. The procedure:
(§1) Cells were plated into a 96-well plate (5,000 to 10,000 cells per well) in full growth media. The following day, media is exchanged for serum starved media (0.1% BSA in growth media without FBS) and incubated overnight. Cells were treated for 24 hours with peptides at varying concentrations range (0.78 to 200 µM). The cell viability is read using luminescent cell viability dye (CellTiter-Glo, Promega Corporation, USA) by adding 20 µL of dye to each well containing 100 µL of treated media. The cell viability is calculated by dividing each luminescent reading by the average of the luminescent readings for control, untreated cells. Assays are run in triplicate. Dose-response curves were generated and fitted in Prism 5.0 (GraphPad Software, Inc., USA). The EC50 values were generated using the log inhibitor-normalized response variable slope function (Y = 100/(1+10∧((LogEC50-X)*HillSlope)). EC50 values are shown with standard deviation values (S.D.) from at least three independent experiments. For comparison of MDA-MB-231 with HMEC, the cells were not serum starved and plated and treated in HMEC media.

The subject of data set [6] is IMR-90 normal lung fibroblasts. The note with it: serum starved overnight, 24 h treatment; mean ± S.D. The procedure:
as §1

For data set [7], the system named is A-549 cells. The note with it: read-out: EC50 value; serum starved overnight, 24 h treatment; mean ± S.D. of two to three independent experiments. The procedure: as §1
For data set [8], the system named is HMEC (normal human mammary epithelial cells). As to conditions: read-out: EC50 value; treated in HMEC media, 24 h; mean ± S.D. As for the experimental part:
as §1

Structures are written as SMILES. Read-outs that look alike come from different tables or passages of the source. Where a SMILES comes first, the peptide text is derived from it.

On to `CC[C@H](C)[C@H](NC(=O)[C@H](Cc1c[nH]cn1)NC(=O)[C@H](CCCNC(=N)N)NC(=O)[C@H](CCCNC(=N)N)NC(=O)[C@H](CCCNC(=N)N)NC(=O)CNC(=O)[C@H](CCCNC(=N)N)NC(=O)[C@H](CCCNC(=N)N)NC(=O)[C@H](CCCNC(=N)N)NC(=O)[C@H](CCC(N)=O)NC(=O)[C@H](CCCNC(=N)N)NC(=O)[C@H](CCCNC(=N)N)NC(=O)[C@H](CCCCN)NC(=O)[C@H](CCCCN)NC(=O)[C@@H](N)CCCNC(=N)N)C(=O)N[C@H](C(=O)N[C@@H](CCCNC(=N)N)C(=O)N[C@@H](CCCCN)C(=O)N[C@@H](CCCNC(=N)N)C(=O)N[C@H](C(=O)N[C@@H](CC(C)C)C(=O)N[C@@H](CCCNC(=N)N)C(=O)N[C@@H](CCCNC(=N)N)C(=O)N[C@@H](CC(C)C)C(=O)N[C@@H](CC(C)C)C(=O)N[C@@H](CCC(N)=O)C(=O)N[C@@H](CCC(=O)O)C(=O)N[C@@H](CCCNC(=N)N)C(=O)O)[C@@H](C)O)C(C)C` [TE-64562] (H-RKKRRQRRRGRRRHIVRKRTLRRLLQER-OH), for which the toxicity in vivo entry in data set [1] (40 mg/kg intraperitoneally bi-weekly) is given as “does not show any significant non-selective toxicity in vivo”. Also, the “body weight over the course of the study” value in data set [1] (40 mg/kg intraperitoneally bi-weekly, versus Tat and saline groups) is given as “No significant difference in body weight”. Also, the “histological examination of post-treatment liver, spleen and kidney” value in data set [1] (end of 5 weeks of treatment, H&E) is recorded as “No differences between the treatment groups”. For the same molecule, the “time until peptide entered cells” value in data set [2] is recorded as “approximately 10 minutes”. Moreover, in data set [3], the “toxicity to the cells in the dimerization experiment” value is on record as “fairly toxic to the cells”. Moreover, the EC50 – broadly, the concentration at which the effect is half-maximal – amounted to 7.4 ± 1.9 µM in data set [4] (cells not serum starved, plated and treated in HMEC media, 24 h, mean ± S.D., read-out: EC50); 12.6 ± 2.3 µM in data set [4] (serum starved overnight (0.1% BSA, no FBS), 24 h treatment, CellTiter-Glo, mean ± S.D. of at least three independent experiments, read-out: EC50± S.D.); 104 ± 9 µM in data set [5]; 174 ± 54 µM in data set [6]; 6.1 ± 0.9 µM in data set [7]; 38.4 ± 6.1 µM in data set [8].

These data come from article PMC3499488, “A Potential Peptide Therapeutic Derived from the Juxtamembrane Domain of the Epidermal Growth Factor Receptor” (PLoS ONE, 2012).
